Results reported in BindingDB's records for doi:10.1021/jm401695d (Emory University, 2014).

Target: Glutamate NMDA receptor; Grin1/Grin2c (Rattus norvegicus, UniProt Q00961+P35439)
Assay: Potentiation of rat recombinant GluN1/GluN2C expressed in Xenopus laevis oocytes assessed as increase in glutamate/glycine-induced current response by two-electrode voltage clamp technique relative to control

Chain of Glutamate NMDA receptor; Grin1/Grin2c (Q00961 whole entry, other chains not shown): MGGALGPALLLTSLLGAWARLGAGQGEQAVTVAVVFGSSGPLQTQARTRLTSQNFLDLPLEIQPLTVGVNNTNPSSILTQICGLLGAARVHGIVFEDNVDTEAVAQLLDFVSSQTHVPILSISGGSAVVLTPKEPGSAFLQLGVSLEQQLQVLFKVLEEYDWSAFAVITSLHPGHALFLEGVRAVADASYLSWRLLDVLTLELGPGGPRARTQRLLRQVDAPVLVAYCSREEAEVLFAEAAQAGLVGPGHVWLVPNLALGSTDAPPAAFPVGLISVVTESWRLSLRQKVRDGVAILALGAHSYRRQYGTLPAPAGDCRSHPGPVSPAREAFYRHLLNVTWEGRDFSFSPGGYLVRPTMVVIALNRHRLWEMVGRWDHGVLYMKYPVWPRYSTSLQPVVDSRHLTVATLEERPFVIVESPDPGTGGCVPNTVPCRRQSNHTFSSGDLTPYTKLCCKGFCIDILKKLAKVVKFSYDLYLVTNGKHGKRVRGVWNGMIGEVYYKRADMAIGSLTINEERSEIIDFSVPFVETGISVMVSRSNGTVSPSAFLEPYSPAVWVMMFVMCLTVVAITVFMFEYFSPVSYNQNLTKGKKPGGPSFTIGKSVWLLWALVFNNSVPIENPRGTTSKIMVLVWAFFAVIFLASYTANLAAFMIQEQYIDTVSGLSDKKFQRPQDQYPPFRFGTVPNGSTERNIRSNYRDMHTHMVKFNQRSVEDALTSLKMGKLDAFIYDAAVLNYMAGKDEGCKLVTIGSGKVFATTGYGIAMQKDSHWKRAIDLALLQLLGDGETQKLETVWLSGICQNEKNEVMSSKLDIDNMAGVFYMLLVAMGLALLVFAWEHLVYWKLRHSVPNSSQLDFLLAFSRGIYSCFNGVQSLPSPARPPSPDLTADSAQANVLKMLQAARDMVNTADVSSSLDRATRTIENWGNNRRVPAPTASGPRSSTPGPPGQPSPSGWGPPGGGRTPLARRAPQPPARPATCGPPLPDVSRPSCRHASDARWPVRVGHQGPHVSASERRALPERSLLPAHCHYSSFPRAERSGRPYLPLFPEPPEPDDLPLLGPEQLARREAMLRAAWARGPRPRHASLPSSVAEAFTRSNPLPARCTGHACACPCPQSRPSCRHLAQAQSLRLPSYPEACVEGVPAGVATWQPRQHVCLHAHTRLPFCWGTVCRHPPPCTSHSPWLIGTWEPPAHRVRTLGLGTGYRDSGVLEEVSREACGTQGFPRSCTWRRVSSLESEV

Work on COC(=O)c1ccc(C2C(C(C)=O)=C(O)C(=O)N2CCc2c(C)[nH]c3ccccc23)cc1 (stereo unspecified) yielded an EC50 of 16 µM.
